Results from ChEMBL document CHEMBL3085700 (J Med Chem, 2013).
Calls of active or inactive are those of the source. The rule behind the calls is not given here.

Columns and labels:
[1] = target: T1, Fatty-acid amide hydrolase 1 (Homo sapiens, UniProt O00519); test: Inhibition of human recombinant FAAH overexpressed in African green monkey COS7 cells using [3H]-anandamide as substrate preincubated for 10 mins before substrate addition measured after 10 mins by liquid scintillation counting analysis; type: cell-based, COS-7
T1 sequence (O00519 whole entry): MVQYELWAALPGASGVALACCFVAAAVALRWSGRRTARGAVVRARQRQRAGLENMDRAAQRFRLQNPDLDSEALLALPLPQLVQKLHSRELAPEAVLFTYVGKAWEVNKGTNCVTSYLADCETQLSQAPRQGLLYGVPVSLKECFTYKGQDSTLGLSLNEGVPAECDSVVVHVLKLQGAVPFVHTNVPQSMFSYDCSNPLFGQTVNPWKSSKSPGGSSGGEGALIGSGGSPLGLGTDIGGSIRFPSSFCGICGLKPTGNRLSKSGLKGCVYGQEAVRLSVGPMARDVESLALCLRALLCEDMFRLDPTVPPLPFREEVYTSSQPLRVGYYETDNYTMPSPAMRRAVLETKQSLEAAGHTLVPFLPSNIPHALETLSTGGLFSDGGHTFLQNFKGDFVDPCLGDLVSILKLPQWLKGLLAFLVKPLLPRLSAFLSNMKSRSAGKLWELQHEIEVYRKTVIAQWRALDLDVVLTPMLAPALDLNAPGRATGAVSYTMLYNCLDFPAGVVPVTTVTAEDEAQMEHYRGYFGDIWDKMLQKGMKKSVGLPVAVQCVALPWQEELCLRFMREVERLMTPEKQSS

[2] = target: T2, Fatty-acid amide hydrolase 1 (Homo sapiens) (UniProt O00519); test: Reversible inhibition of human recombinant FAAH overexpressed in African green monkey COS7 cells using […] as substrate assessed as recovery of enzyme activity at 20 x IC50 preincubated for 60 mins followed by 500 fold dilution measured after 10 mins by HPLC analysis; type: cell-based; settings: COS-7
T2 sequence (whole entry): T1 sequence (O00519 whole entry)

[3] = target: T2, Fatty-acid amide hydrolase 1 (Homo sapiens); test: Inhibition of human recombinant FAAH overexpressed in African green monkey COS7 cells using [3H]-anandamide as substrate at 30 uM preincubated for 10 to 60 mins by liquid scintillation counting analysis; settings: COS-7
[4] = target: T3, Fatty-acid amide hydrolase 1 (Rattus norvegicus) (UniProt P97612); test: Inhibition of FAAH in rat RBL2H3 cells assessed as blockade of [3H]-anandamide uptake at 0.0001 to 1 uM incubated for 15 mins prior to [3H]-anandamide addition measured after 10 mins by scintillation spectroscopic analysis in presence of JJKK-048; type: cell-based; settings: RBL-2H3
T3 sequence (whole entry): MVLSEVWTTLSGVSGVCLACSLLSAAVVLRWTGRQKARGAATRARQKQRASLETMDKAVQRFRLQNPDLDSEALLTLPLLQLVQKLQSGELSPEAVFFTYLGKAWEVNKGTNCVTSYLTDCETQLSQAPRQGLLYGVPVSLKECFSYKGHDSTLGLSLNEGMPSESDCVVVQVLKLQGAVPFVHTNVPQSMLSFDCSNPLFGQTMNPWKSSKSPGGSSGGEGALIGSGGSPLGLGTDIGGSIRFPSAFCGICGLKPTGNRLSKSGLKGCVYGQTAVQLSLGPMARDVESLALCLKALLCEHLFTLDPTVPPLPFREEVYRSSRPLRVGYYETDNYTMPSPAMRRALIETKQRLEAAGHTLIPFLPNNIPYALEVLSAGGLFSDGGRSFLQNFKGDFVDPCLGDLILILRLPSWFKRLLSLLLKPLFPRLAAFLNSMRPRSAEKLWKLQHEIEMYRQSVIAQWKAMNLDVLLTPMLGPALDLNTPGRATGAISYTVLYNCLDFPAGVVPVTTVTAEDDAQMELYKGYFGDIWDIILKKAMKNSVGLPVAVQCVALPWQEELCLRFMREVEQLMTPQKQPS

[5] = target: T3, Fatty-acid amide hydrolase 1 (Rattus norvegicus); test: Inhibition of FAAH in rat RBL2H3 cells assessed as blockade of [3H]-anandamide uptake at 1 uM incubated for 15 mins prior to [3H]-anandamide addition measured after 10 mins by scintillation spectroscopic analysis; type: cell-based; settings: RBL-2H3
[6] = target: T4, Fatty-acid amide hydrolase 1 (Rattus norvegicus, UniProt P97612); test: Inhibition of FAAH in rat RBL2H3 cells assessed as blockade of [3H]-anandamide uptake incubated for 15 mins prior to [3H]-anandamide addition measured after 10 mins by scintillation spectroscopic analysis; type: cell-based, RBL-2H3
T4 sequence (P97612 whole entry): T3 sequence (whole entry)

[7] = target: T5, Lysophosphatidylserine lipase ABHD12 (Homo sapiens) (UniProt Q8N2K0); test: Inhibition of human ABHD12 overexpressed in HEK293 cells assessed as 2-AG hydrolysis at 1 uM by fluorescent glycerol assay; type: cell-based
T5 sequence (whole entry): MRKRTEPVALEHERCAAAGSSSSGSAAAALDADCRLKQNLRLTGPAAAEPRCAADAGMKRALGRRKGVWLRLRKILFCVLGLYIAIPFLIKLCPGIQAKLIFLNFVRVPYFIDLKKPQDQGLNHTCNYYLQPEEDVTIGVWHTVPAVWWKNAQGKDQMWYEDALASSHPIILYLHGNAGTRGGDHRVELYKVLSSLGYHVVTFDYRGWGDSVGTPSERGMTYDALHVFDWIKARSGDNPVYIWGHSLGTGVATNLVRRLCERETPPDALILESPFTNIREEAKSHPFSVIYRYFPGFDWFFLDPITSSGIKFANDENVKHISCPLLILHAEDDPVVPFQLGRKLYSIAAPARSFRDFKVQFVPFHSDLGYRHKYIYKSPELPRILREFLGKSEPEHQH

[8] = target: T6, Monoacylglycerol lipase ABHD6 (Homo sapiens) (UniProt Q9BV23); test: Inhibition of human ABHD6 overexpressed in HEK293 cells assessed as 2-AG hydrolysis at 1 uM by fluorescent glycerol assay; type: cell-based
T6 sequence (whole entry): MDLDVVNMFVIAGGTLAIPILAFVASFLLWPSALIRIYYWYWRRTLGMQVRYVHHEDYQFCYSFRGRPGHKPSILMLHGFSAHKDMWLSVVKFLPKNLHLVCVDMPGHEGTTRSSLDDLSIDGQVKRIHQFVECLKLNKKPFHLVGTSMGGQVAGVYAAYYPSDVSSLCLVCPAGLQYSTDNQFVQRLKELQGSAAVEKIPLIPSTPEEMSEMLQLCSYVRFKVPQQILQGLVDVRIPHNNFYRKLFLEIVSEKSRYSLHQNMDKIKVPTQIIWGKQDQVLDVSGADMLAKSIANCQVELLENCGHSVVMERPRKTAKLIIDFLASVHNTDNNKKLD

Monoglyceride lipase = target: T7, Monoglyceride lipase (Homo sapiens, UniProt Q99685); test: Inhibition of human recombinant MAGL overexpressed in HEK cells using 2-AG as substrate preincubated for 10 mins before substrate addition measured after 10 mins by HPLC analysis; type: cell-based, HEK293
T7 sequence (Q99685 whole entry): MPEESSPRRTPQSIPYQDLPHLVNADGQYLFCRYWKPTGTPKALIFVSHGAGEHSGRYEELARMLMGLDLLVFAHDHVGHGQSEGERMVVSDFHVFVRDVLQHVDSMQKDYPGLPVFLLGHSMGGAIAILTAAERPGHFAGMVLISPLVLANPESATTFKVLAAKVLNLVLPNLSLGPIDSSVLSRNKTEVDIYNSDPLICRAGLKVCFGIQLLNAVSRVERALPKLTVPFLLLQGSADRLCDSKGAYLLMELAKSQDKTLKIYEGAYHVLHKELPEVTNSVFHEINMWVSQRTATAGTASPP

[9] = target: T8, Prostaglandin G/H synthase 2 (Homo sapiens) (UniProt P35354); test: Inhibition of human recombinant COX-2 assessed as inhibition of arachidonic acid cyclooxygenation at 100 uM measured within 10 to 50 secs relative to control
T8 sequence (whole entry): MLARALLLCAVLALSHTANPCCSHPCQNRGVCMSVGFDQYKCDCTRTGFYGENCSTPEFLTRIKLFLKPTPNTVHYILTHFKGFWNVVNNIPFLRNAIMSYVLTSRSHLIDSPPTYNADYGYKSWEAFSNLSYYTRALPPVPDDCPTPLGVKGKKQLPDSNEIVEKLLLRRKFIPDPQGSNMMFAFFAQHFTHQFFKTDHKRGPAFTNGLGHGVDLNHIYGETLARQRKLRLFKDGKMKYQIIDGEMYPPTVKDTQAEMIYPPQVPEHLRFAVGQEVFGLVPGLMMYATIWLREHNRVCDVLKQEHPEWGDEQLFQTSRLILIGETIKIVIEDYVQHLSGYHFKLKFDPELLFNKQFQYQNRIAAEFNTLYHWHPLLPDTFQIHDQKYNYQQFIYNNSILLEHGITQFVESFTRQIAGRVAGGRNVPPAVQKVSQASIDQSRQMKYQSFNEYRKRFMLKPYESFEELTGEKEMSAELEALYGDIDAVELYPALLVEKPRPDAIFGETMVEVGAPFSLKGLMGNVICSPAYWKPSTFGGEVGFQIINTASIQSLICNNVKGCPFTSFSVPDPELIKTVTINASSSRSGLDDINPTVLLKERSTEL

[10] = target: T8, Prostaglandin G/H synthase 2 (Homo sapiens); test: Inhibition of human recombinant COX-2 assessed as inhibition of arachidonic acid cyclooxygenation at 30 uM measured within 10 to 50 secs relative to control
[11] = target: T8, Prostaglandin G/H synthase 2 (Homo sapiens); test: Inhibition of human recombinant COX-2 assessed as inhibition of arachidonic acid cyclooxygenation at 10 uM measured within 10 to 50 secs relative to control
[12] = target: T9, Prostaglandin G/H synthase 1 (Ovis aries) (UniProt P05979); test: Inhibition of ovine COX-1 using arachidonic acid as substrate assessed as oxygen consumption at 100 uM measured within 10 to 50 secs
T9 sequence (whole entry): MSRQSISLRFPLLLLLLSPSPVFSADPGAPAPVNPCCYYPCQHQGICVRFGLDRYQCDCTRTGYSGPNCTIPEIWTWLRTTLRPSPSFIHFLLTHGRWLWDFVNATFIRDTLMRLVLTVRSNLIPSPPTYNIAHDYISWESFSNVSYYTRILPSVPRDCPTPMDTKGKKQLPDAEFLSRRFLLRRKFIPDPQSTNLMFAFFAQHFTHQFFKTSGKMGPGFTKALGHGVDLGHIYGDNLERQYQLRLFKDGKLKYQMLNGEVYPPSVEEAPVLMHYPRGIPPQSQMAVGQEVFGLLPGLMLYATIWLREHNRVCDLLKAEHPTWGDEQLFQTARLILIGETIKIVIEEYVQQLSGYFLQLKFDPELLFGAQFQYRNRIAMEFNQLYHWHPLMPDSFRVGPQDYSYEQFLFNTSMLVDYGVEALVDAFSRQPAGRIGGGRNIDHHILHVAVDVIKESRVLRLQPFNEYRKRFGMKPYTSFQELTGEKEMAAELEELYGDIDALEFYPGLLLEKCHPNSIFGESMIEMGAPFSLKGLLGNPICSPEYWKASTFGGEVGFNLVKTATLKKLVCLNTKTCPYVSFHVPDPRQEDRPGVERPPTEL

[13] = target: T9, Prostaglandin G/H synthase 1 (Ovis aries); test: Inhibition of ovine COX-1 using arachidonic acid as substrate assessed as oxygen consumption at 10 uM measured within 10 to 50 secs
[14] = target: T8, Prostaglandin G/H synthase 2 (Homo sapiens); test: Inhibition of human recombinant COX-2 assessed as inhibition of 2-AG cyclooxygenation at 100 uM measured within 10 to 50 secs relative to control
[15] = target: T8, Prostaglandin G/H synthase 2 (Homo sapiens); test: Inhibition of human recombinant COX-2 assessed as inhibition of 2-AG cyclooxygenation at 30 uM measured within 10 to 50 secs relative to control
[16] = target: T8, Prostaglandin G/H synthase 2 (Homo sapiens); test: Inhibition of human recombinant COX-2 assessed as inhibition of 2-AG cyclooxygenation at 10 uM measured within 10 to 50 secs relative to control
[17] = target: T9, Prostaglandin G/H synthase 1 (Ovis aries); test: Inhibition of ovine COX-1 using arachidonic acid as substrate assessed as oxygen consumption at 30 uM measured within 10 to 50 secs

CCCCCCCCCCCC(=O)c1nc2ncccc2o1
IC50 ([1]; read-out: IC50): 17 nM
IC50 ([1]; read-out: pIC50 (converted)): 16.6 nM
inhibition [2]: Active
inhibition [3]: inactive

COc1nn(C(C)c2ccc(N(c3ccccc3)c3ccccc3)cc2)c(=O)o1 (racemic)
IC50 ([1]; read-out: IC50): 120 nM
IC50 ([1]; read-out: pIC50 (converted)): 115 nM
inhibition [4]: Active
inhibition [5]: Active
IC50 [6]: 11 nM
inhibition [7]: inactive
inhibition [8]: inactive
IC50 (Monoglyceride lipase; read-out: IC50): 0.63 µM

COc1nn([C@H](C)c2ccc(CC(C)C)cc2)c(=O)o1
IC50 ([1]; read-out: IC50): 240 nM
IC50 ([1]; read-out: pIC50 (converted)): 245 nM
inhibition [7]: inactive
inhibition [8]: inactive
inhibition [9]: 50%
inhibition [10]: 40%
inhibition [11]: 30%
inhibition [12]: 20%
inhibition [13]: inactive
inhibition [14]: 30%
inhibition [15]: 10%
inhibition [16]: 20%
inhibition [17]: 10%
IC50 (Monoglyceride lipase; read-out: IC50): 4 µM
IC50 (Monoglyceride lipase; read-out: pIC50 (converted)): 13.5 µM
